# Laboratory results taken from US20150087723A1, “MICROBIAL COMPOSITION” (Rohm and Haas Company, priority 2011, published 2015).
# What was measured:
# Format in all cases: cell-based
# [1] = tested on: Escherichia coli (E. coli—ATCC #10536); assay: Synergy test: high resolution MBC microtiter plate assay, phosphate buffer containing 35% dipropylene glycol, 15 seconds contact; conditions: E. coli 10536
# From the text: One measure of synergy is -the industrially accepted method described by Kull, F. C.; Eisman, P. C.; Sylwestrowicz, H. D. and Mayer, R. L., in Applied Microbiology 9:538-541 (1961), using the ratio determined by the formula:
# Qa/QA+Qb/QB=Synergy Index (“SI”)
# wherein: QA=concentration of compound A (first component) in percent, acting alone, which produced an end point (MBC of Compound A). Qa =concentration of compound A in percent, in the mixture, which produced an end point. QB=concentration of compound B (second component) in percent, acting alone, which produced an end point (MBC of Compound B). Qb=concentration of compound B in percent, in the mixture, which produced an end point.
# When the sum of Qa/QA and Qb/QB is greater than one, antagonism is indicated. […] The lower the SI, the greater is the synergy shown by that particular mixture. The minimum biocidal concentration (MBC) of a microbicide is the lowest concentration tested under a specific set of conditions that provides complete kill of the tested microorganisms.
# Synergy tests were-conducted using standard microtiter plate assays with, phosphate buffer containing 35% dipropylene glycol (DPG). In this method, a wide range of combinations of chemicals was tested by conducting high resolution MBC assays of Component (A) in the presence of various concentrations of Component (B). High resolution MBCs were determined by adding varying amounts of microbicide to one column of a microtiter plate and doing subsequent ten-fold dilutions using an automated liquid handling system to obtain a series of closely spaced endpoints. The MBC plate was inoculated one column at a time with the test microorganism. An aliquot of the inoculated well was transferred at 15 seconds to a plate containing a neutralizing agent (D/E Neutralizing Broth), mixed and held for 5 minutes before being transferred to a growth plate containing trypticase soy broth (TSB). The TSB plate was incubated at 37° C. and read for the presence/absence of growth at 24 hours. The lowest level tested that provided complete kill (as evidenced by no growth in the microtitre plate) of the test organisms in 15 seconds is the minimum biocidal concentration (MBC).
# The synergy of the combinations of the present invention was determined against a bacterium, Escherichia coli (E. coli—ATCC #10536), at a concentration of approximately 1×10^8 bacteria per mL. This microorganism is representative of natural contaminants in many consumer and industrial applications.
# [2] = tested on: Escherichia coli (E. coli—ATCC #10536); assay: Automated assessment of efficacy in model surfactant base (2.85% sodium cocoyl glycinate + 1.85% sodium lauroamphoacetate, pH 10), 15 seconds exposure, OD450/OD590 readout; conditions: for No. of replicates showing growth (out of 4) / Δ OD 450 nm = OD450 (time = 16 hours) - OD450 (time zero), Mean / Δ OD 590 nm OD590 (time = 16 hours) - OD590 (time zero), Mean: model surfactant solution
# Protocol: Solutions were prepared such that the concentrations of the surfactant components and test actives were 1.1×x the final desired concentration in order to allow for dilution with the bacterial inoculum in the test. The solutions were manually adjusted to pH 10.0 by drop wise addition of sodium hydroxide solution, as measured with a phi meter at ambient temperature.
# Tests were conducted using standard microtiter plate assays using an automated liquid handling system, 270 μl of the surfactant test solution was pipetted into each well of the microtitre plate and 30 μl of the bacterial suspension was then added. After exactly 15 seconds of bacterial exposure, a 30 μl volume of bacterial cells was withdrawn and transferred to 270 μl of D/E quench solution. After 5 minutes in the D/E quench, the optical density (OD) was measured for each plate in turn at two specific wavelengths (450 nm and 590 nm). These provide a dual check of antimicrobial activity, as the OD450 reading is specific for the yellow colour of D/E quench when bacterial growth is observed, whereas OD590 is specific for the initial purple colour of the D/E quench which is retained if no bacterial growth is observed. After the time zero OD measurements, plates were then incubated at 37° C. overnight (16 hours) before repeating the OD measurements. Delta OD values were calculated by subtracting […] the initial value at time zero. Bacterial growth is observed as an increase in OD450 and a decrease in ΔOD590. To identify antibacterially efficacious systems (those preventing appreciable bacterial growth after incubation), the following threshold changes in OD readings have been adopted: if (1), OD450 increases by less than 0.2 absorbance unit on incubation and (2). OD590 decreases by less than 0.35 unit on incubation. Conversely, where OD450 increases by more than 0.2 AU and OD590 decreases by more than 0.35 unit after incubation, corresponding to a colour shift from purple to yellow, the test system allows bacterial growth and is not deemed efficacious. Four replicate measurements in the same plate have been made for each test system. The number of replicate wells showing either bacterial growth or no growth is also readily assessed by eye by following the colour change.
# Dose responses for individual components and binary mixtures of actives at a used concentration ratio were generated by sequential dilution of liquors with further surfactant solution to obtain a series of endpoints.
# In some selected cases, the combinations were also tested at the weight ratio 1:1.
# [3] = tested on: Escherichia coli (10536 strain); assay: Antimicrobial efficacy in water, 15 seconds contact, mean bacterial survival NMBS by colony count; conditions: component alone at 0.1% w/v
# Protocol: An overnight culture of Escherichia coli (10536 strain) was prepared in 50 ml total volume of TSB broth, grown for ca. 18 hrs at 37° C. and shaken at 150 rpm. 1 ml of this overnight E. coli culture was transferred to 50 ml of fresh TSB broth and incubated at 37° C. at 150 rpm for ca. 4 hours. […] This bacterial stock was used for assaying against antimicrobial actives (in triplicate).
# The following assay describes the testing of 8 materials using 6 dilutions across half of a 96-well micro litre plate (MTP). Using this approach it is possible to assay 16 actives (without replicates) with, one full dilution plate, replicating this set up in two halves of the plate columns, 1-6 and 7-12.
# IM solutions of the test actives were prepared in dimethylsulphoxide (DMSO).
# Aliquots (270 μl) of the materials at 1.11 times the final concentration were dispensed into the wells of the MTP along one column (A1-H1). This MTP was labeled as the “Screening plate”.
# In another MTP, labeled as the “Dilution plate”, 270 μl of D/E neutralising solution from DIFCO Composition was added to column 1. The composition of the neutralising solution was as follows: pancreatic digest of casein, 5.0 g/L; Yeast Extract, 2.5 g/L; Dextrose, 10 g/L, sodium thioglycollate, 1.0 g/L, sodium thiosulphate, 6.0 g/L; sodium bisulphite, 2.5 g/L; Polysorbate 80, 5.0 g/L; lecithin 7.0 g/L; bromocresol purple, 0.02 g/L with a pH is the range 7.6±0.2.
# 270 μl of tryptone diluent solution was added to all the remaining wells of the Dilution MTP (columns 2-6).
# Bacterial stock (30 μl) was then added to the prepared 270 μl of the solution of actives in the Screening Plate and mixed, using a multichannel pipette with 8 tips to aspirate and dispense the same volume of bacterial stock in parallel to 8 wells in rows A-H. After a contact time of 15 seconds, the mixtures were quenched by transferring 30 μl volumes of the mixtures into the 270 μl D/E neutralising solution in the prepared dilution plate, using aspiration to mix. After exactly 5 minutes in the D/E neutralising solution, 30 μl volumes were transferred from column 1 to column 2 of the Dilution MTP and mixed, before transferring further 30 μl volumes from column 2 into column 3. This process was repeated serially diluting the bacteria across the plate to column 6.
# 30 μl volumes from each well in the Dilution MTP were transferred onto pre-labeled segment of Tryptone Soya Agar (TSA) plates starting from the lowest bacterial concentration (highest dilution, column 6) to the highest bacterial concentration (column 1). The TSA plates were allowed to stand for ca. 2 hours so that the 30 μl inocula spots could dry and the plates were then inverted and incubated overnight at 37° C. before enumerating the bacterial colonies at the labeled dilutions to determine the effects of the actives on bacterial growth.
# Mean bacterial survival numbers NMBS (expressed in Log CFU/ml) are obtained by first determining the segment of the TSA plate where the number of bacterial colonies is countable. From the colony number in this segment, NMBS is calculated by the formula: […]
# Here, Ncol is the colony count, and DF is the dilution factor taken from the MTP-well corresponding to the TSA plate segment (i.e. DF may range from 1 for the quench, to 6 for the highest dilution).
# [4] = tested on: Staphylococcus aureus (10788 strain); assay: as above; conditions: component alone at 0.1% w/v
smiles,measurement,setting,value
"C=CC(C)(O)CCC=C(C)C (racemic) [3,7-dimethylocta-1,6-dien-3-ol]",SI (Synergy Index = Qa/QA + Qb/QB),"[1]; at Qa and Qb, <1 synergy, 1 additivity, >1 antagonism",1.00
same,Qb: MBC of the second component (B) acting alone (QB),"[1]; component alone (Qa = 0), complete kill in 15 seconds",0.5 weight %
same,MBC,"[2]; Escherichia coli, ATCC10536, 15 s, in 2.85% sodium cocoyl glycinate + 1.85% sodium lauroamphoacetate solution at pH 10, E. coli, read-out: MBC (% w/v)",> 5000 µg/mL
same,No. of replicates showing growth (out of 4),[2]; component alone at 0.2% w/v,4 out of 4
same,"Δ OD 450 nm = OD450 (time = 16 hours) - OD450 (time zero), Mean",[2]; component alone at 0.2% w/v,−0.53
same,"Δ OD 590 nm OD590 (time = 16 hours) - OD590 (time zero), Mean",[2]; component alone at 0.2% w/v,0.60
same,No. of replicates showing growth (out of 4),[2]; component alone at 0.5% w/v,3 out of 4
same,"Δ OD 450 nm = OD450 (time = 16 hours) - OD450 (time zero), Mean",[2]; component alone at 0.5% w/v,−0.30
same,"Δ OD 590 nm OD590 (time = 16 hours) - OD590 (time zero), Mean",[2]; component alone at 0.5% w/v,0.50
same,No. of replicates showing growth (out of 4),[2]; component alone at […] w/v,4 out of 4
same,Log reduction E. coli ATCC 10536,[3],0.06
same,Log reduction S. aureus ATCC 6538,[4],−0.13
